Data set [1] can be described thus: Rat pharmacokinetic study, plasma. It counts as in vivo, Sprague-Dawley rat. The following applies: both sexes, Sprague-Dawley, rat, in vivo, po, 500 mg/kg.
Data set [2] deals with human mitochondrial RNA polymerase (POLRMT) (Homo sapiens, UniProt O00411). The experiment in a line: POLRMT nucleotide incorporation assay. It counts as biochemical.
The target in data set [3] is T1, HCV NS5B polymerase (RdRp) (Hepatitis C virus genotype 1b, UniProt Q9WMX2).
T1 construct: HCV NS5B polymerase (RdRp) assay
T1 sequence (Q9WMX2 2420-3010): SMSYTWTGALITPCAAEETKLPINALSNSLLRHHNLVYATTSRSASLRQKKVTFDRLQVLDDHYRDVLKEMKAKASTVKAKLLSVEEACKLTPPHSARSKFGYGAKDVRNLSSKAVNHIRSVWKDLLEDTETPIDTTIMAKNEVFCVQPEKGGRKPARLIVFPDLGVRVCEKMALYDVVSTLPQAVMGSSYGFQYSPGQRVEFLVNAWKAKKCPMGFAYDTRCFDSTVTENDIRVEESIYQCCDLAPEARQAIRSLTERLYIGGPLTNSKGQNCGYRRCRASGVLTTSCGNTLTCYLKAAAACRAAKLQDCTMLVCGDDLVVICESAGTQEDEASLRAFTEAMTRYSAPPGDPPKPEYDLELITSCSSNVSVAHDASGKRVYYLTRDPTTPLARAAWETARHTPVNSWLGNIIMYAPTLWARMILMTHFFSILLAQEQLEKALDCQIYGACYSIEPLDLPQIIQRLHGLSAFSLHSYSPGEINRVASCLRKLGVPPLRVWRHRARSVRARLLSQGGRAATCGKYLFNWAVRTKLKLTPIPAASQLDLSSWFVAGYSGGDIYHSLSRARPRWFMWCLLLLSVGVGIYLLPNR
The experiment in a line: HCV NS5B polymerase (RdRp) assay. It counts as biochemical. On the procedure: RdRp activity was determined by the incorporation of radiolabeled ribonucleotide into synthesized RNA. […] HCV796 (Southern Research, Frederick, MD) was used as positive control for the assay.

Data set [4] in a line: Rat PK study, liver and heart tissue levels. It counts as in vivo, Sprague-Dawley rat. The following applies: 4 h after oral AT-527 500 mg/kg. On the procedure:
Rat pharmacokinetic (PK) study. Sprague-Dawley rats were obtained from SLAC Laboratory Animal Co., Ltd. (Shanghai, China), group housed (during the 3-day acclimation period) or individually housed (during the study) and provided ad libitum access to purified (reverse osmosis; RO) water and food except when fasted overnight prior to administration of test article, 4 h after which access to food was restored. Two groups of five rats (single sex/group) were administered a single dose of 500 mg/kg AT-527, suspended in 0.5% CMC-Na and 0.5% Tween 80, via nasogastric gavage followed by a vehicle flush of 3 mL (about 3 times the nasogastric tube volume). This dosage was selected because it was close to the anticipated highest dose to be used in a repeated oral dose toxicity study and would permit accurate assessments of plasma concentrations of metabolites. Blood samples (200 μL) were collected via the saphenous vein using manual restraint at 0.25, 0.5, 1, 2, 4, 6, 8, 10, 12, 24, 48 and 72 h post dose from three animals per sex, and at 0.25, 0.5, 1, 2 and 4 h post dose from two animals per sex. Blood samples were transferred to tubes containing 4 μL 0.5 M dipotassium ethylenediaminetetraacetic acid (K2EDTA) and 10 μL dichlorvos (2 mg/mL) to prevent coagulation and inhibit esterase activity, respectively, mixed and centrifuged (3000 x g, 10 min, 2–8°C) to prepare plasma samples which were quickly frozen on dry ice and stored at ≤ -80°C until LC-MS/MS analysis. […] After the 4-h blood collection, two rats per group were euthanized by CO2 inhalation followed by rapid excision and snap-freezing of the heart and liver in liquid nitrogen. The frozen organs were broken into small pieces and approximately 0.5 g of each tissue was homogenized in 5 volumes (w/v) pre-chilled homogenization solution (30% 268 mM EDTA adjusted to pH 7.2–7.4 with potassium hydroxide in MeOH) in a dry ice-ethanol bath. […]

Data set [5] in a line: Intracellular metabolism in monkey hepatocytes. It counts as in vitro ADME, cynomolgus monkey. On the procedure: Hepatocytes. […] Cryopreserved male mouse (CD1), and fresh male Beagle dog and male cynomolgus monkey hepatocytes were obtained from BioreclamationIVT (Baltimore, MD) and were similarly plated with Matrigel in 6- or 24-well plates and maintained overnight in InVitroGRO™HI medium with Torpedo™ antibiotic (BioreclamationIVT). The protocol described above for measuring AT-511 and its metabolites in Huh-7 cells was repeated with the five different hepatocytes. Untreated cells were collected at 24 h, and the protein content of the cell lysates were determined using a bicinchoninic acid protein assay kit to assess the number of cells in each incubation. Separately, plated human hepatocytes were incubated for 6 h with 100 μM AT-511, followed by washout periods of 0, 2, 6, 18 and 30 h.
S3 Protocol. LC-MS/MS analysis of AT-511 and metabolites in cultured cells. The supernatant extracts of each hepatocyte and Huh-7 cell incubation were separately analyzed by four different LC-MS/MS methods for quantitation of phosphoramidates, nucleosides, monophosphates, and triphosphates (methods 1, 2, 3 and 4, respectively), using synthetic reference standards of actually and potentially present compounds and using structurally related analogs as internal standards. […]

Chain of human mitochondrial RNA polymerase (POLRMT) (O00411 42-1230): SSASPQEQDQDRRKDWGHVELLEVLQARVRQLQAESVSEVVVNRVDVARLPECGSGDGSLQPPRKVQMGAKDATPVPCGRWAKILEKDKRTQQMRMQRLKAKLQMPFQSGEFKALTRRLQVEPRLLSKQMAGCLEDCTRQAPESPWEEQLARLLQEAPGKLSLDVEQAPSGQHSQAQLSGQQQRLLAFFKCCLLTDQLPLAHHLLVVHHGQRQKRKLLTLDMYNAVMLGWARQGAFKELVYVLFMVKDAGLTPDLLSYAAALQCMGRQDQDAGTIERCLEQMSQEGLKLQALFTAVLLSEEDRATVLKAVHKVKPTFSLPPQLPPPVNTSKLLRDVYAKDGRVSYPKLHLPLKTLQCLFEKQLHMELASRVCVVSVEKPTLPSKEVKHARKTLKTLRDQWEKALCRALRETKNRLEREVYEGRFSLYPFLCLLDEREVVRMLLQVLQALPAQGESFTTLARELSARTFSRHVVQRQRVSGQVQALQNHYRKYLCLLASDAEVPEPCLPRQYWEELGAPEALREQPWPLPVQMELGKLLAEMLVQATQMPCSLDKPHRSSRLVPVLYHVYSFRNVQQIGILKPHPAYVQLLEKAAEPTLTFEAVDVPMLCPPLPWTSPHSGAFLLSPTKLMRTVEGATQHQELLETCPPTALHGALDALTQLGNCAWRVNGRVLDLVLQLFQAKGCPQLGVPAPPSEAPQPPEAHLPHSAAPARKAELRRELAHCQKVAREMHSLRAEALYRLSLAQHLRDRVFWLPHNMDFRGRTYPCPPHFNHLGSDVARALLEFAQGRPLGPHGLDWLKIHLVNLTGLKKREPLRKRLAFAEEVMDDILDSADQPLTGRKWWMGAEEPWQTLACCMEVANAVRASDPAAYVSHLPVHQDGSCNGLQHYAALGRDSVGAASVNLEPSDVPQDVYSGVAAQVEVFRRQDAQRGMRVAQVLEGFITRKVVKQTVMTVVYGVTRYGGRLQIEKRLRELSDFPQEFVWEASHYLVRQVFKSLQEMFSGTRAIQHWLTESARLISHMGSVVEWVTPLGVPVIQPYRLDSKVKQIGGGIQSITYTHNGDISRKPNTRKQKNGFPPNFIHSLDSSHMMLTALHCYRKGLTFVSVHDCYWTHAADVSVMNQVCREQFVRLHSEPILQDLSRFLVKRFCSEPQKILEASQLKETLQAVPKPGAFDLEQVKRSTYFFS

Regarding `C[C@@]1(F)[C@H](O)[C@@H](CO)O[C@H]1n1cnc2c(=O)[nH]c(N)nc21` [AT-273], in data set [1], the AUC(0-t) (in general, the area under the concentration-time curve up to a stated or last time point) came to 40.3 ± 10.9 µM·h; the concentration peaked (Cmax) at 2500 ± 520 nM; the MRT last (in general, the average time that molecules of a dose stay in the body) amounted to 17.5 ± 2.1 h; the Tmax (as a rule, the time at which the peak concentration occurs) turned out to be 6.34 ± 0.58 h.

With `C[C@@]1(F)[C@H](O)[C@@H](COP(=O)(O)OP(=O)(O)OP(=O)(O)O)O[C@H]1n1cnc2c(=O)[nH]c(N)nc21` [AT-9010], the Relative efficiency in data set [2] ((kpol/Kd,app)incorrect/(kpol/Kd,app)correct) is reported as 2.2 x 10^−6. Further, the Kd in data set [2] (POLRMT-catalyzed nucleotide incorporation, read-out: Kd,app) turned out to be 204 ± 94 µM. Also, the “kpol/Kd, app” value in data set [2] (efficiency of incorporation) is on record as 8.3 ± 4.0 x 10^−6 μM^-1s^-1. In addition, the IC50 (in general, the midpoint of a concentration-inhibition curve) in data set [3] (as a competitive inhibitor of ATP, single assay) is 40.3 µM. This compound had an IC50 in data set [3] (as an alternate substrate for GTP, mean of two assays) of 0.15 µM. Also, in data set [4], the “fold higher in liver than in heart” value came to 87 fold, the mean heart concentration was determined as 80 ± 41 pmol/g and the mean liver concentration was 6974 ± 2844 pmol/g. Moreover, in data set [5] (10 μM AT-511), the “AUC0-24, intracellular” value was 195 pmol*h/10^6 cells. Also, the “Cmax, intracellular” value in data set [5] (10 μM AT-511, 0-24 h) is 10.4 ± 0.2 pmol/10^6 cells.

(Values after PMC6949113, “Preclinical evaluation of AT-527, a novel guanosine nucleotide prodrug with potent, pan-genotypic activity against hepatitis C virus” (PLoS ONE, 2020).)
